Measured values: the NIST ThermoML archive (doi:10.1021/acs.jced.6b00542)

Test: xn = mol fraction of the nth substance listed
Conditions: for speed of sound: 100 kPa, Frequency=3 MHz, Sing-around technique in a fixed-path interferometer; for speed of sound / viscosity / mass density: Liquid; for viscosity / mass density: 102 kPa; for viscosity: Concentric cylinders viscometry; for mass density: Vibrating tube method; for surface tension liquid-gas: 294.5 K, Pendant drop shape

CCCCc1ccccc1 [butylbenzene] + CCCCCCCCCCCCCC
Conditions	mass density [kg/m3]	speed of sound [m/s]	viscosity [mPa·s]
293.15 K, x1 = 0.1414	770.92	1330.1	2.06
293.15 K, x1 = 0.2704	779.61	1329.5	1.86
293.15 K, x1 = 0.3915	788.74	1329.7	1.69
293.15 K, x1 = 0.4988	797.91	1330.9	1.55
293.15 K, x1 = 0.5961	807.14	1332.5	1.44
293.15 K, x1 = 0.6892	817.1	1334.9	1.34
293.15 K, x1 = 0.7751	827.32	1338.1	1.25
293.15 K, x1 = 0.8553	837.74	1342.1	1.18
293.15 K, x1 = 0.9299	849.02	1347.7	1.12
293.15 K, x1 = 1	860.51	1353.7	1.05
303.15 K, x1 = 0.1414	763.79	1292.6	1.7
303.15 K, x1 = 0.2704	772.41	1292.1	1.54
303.15 K, x1 = 0.3915	781.46	1292.3	1.42
303.15 K, x1 = 0.4988	790.54	1293.4	1.31
303.15 K, x1 = 0.5961	799.68	1294.9	1.22
303.15 K, x1 = 0.6892	809.54	1297.2	1.14
303.15 K, x1 = 0.7751	819.66	1300.2	1.07
303.15 K, x1 = 0.8553	829.96	1303.8	1.02
303.15 K, x1 = 0.9299	841.12	1309.2	0.965
303.15 K, x1 = 1	852.49	1314.9	0.91
313.15 K, x1 = 0.1414	756.65	1255.6	1.42
313.15 K, x1 = 0.2704	765.18	1255.1	1.31
313.15 K, x1 = 0.3915	774.14	1255.3	1.21
313.15 K, x1 = 0.4988	783.14	1256.3	1.12
313.15 K, x1 = 0.5961	792.18	1257.6	1.05
313.15 K, x1 = 0.6892	801.94	1259.8	0.987
313.15 K, x1 = 0.7751	811.95	1262.7	0.932
313.15 K, x1 = 0.8553	822.15	1266.1	0.886
313.15 K, x1 = 0.9299	833.19	1271.2	0.843
313.15 K, x1 = 1	844.43	1276.6	0.801
323.15 K, x1 = 0.1414	749.49	1219.1	1.21
323.15 K, x1 = 0.2704	757.94	1218.6	1.12
323.15 K, x1 = 0.3915	766.81	1218.7	1.04
323.15 K, x1 = 0.4988	775.71	1219.6	0.973
323.15 K, x1 = 0.5961	784.66	1220.9	0.915
323.15 K, x1 = 0.6892	794.32	1223	0.863
323.15 K, x1 = 0.7751	804.22	1225.6	0.818
323.15 K, x1 = 0.8553	814.31	1228.9	0.78
323.15 K, x1 = 0.9299	825.22	1233.7	0.744
323.15 K, x1 = 1	836.34	1238.7	0.713
333.15 K, x1 = 0.1414	742.31	1183.2	1.05
333.15 K, x1 = 0.2704	750.67	1182.7	0.973
333.15 K, x1 = 0.3915	759.45	1182.7	0.908
333.15 K, x1 = 0.4988	768.25	1183.5	0.853
333.15 K, x1 = 0.5961	777.11	1184.7	0.806
333.15 K, x1 = 0.6892	786.65	1186.6	0.762
333.15 K, x1 = 0.7751	796.45	1189.1	0.725
333.15 K, x1 = 0.8553	806.42	1192.1	0.691
333.15 K, x1 = 0.9299	817.22	1196.7	0.662
333.15 K, x1 = 1	828.21	1201.4	0.636
343.15 K, x1 = 0.1414	735.2	–	0.912
343.15 K, x1 = 0.2704	743.4	–	0.852
343.15 K, x1 = 0.3915	752	–	0.8
343.15 K, x1 = 0.4988	760.8	–	0.753
343.15 K, x1 = 0.5961	769.6	–	0.716
343.15 K, x1 = 0.6892	779	–	0.678
343.15 K, x1 = 0.7751	788.7	–	0.647
343.15 K, x1 = 0.8553	798.5	–	0.619
343.15 K, x1 = 0.9299	809.2	–	0.592
343.15 K, x1 = 1	819.9	–	0.571
353.15 K, x1 = 0.1414	728	–	0.804
353.15 K, x1 = 0.2704	736.1	–	0.754
353.15 K, x1 = 0.3915	744.6	–	0.711
353.15 K, x1 = 0.4988	753.3	–	0.671
353.15 K, x1 = 0.5961	762	–	0.639
353.15 K, x1 = 0.6892	771.3	–	0.608
353.15 K, x1 = 0.7751	780.9	–	0.581
353.15 K, x1 = 0.8553	790.6	–	0.557
353.15 K, x1 = 0.9299	801.1	–	0.534
353.15 K, x1 = 1	811.7	–	0.516
363.15 K, x1 = 0.1414	720.7	–	0.715
363.15 K, x1 = 0.2704	728.7	–	0.674
363.15 K, x1 = 0.3915	737.1	–	0.637
363.15 K, x1 = 0.4988	745.7	–	0.604
363.15 K, x1 = 0.5961	754.3	–	0.576
363.15 K, x1 = 0.6892	763.5	–	0.55
363.15 K, x1 = 0.7751	773	–	0.526
363.15 K, x1 = 0.8553	782.5	–	0.505
363.15 K, x1 = 0.9299	793	–	0.486
363.15 K, x1 = 1	803.4	–	0.469
373.15 K, x1 = 0.1414	713.3	–	0.641
373.15 K, x1 = 0.2704	721.2	–	0.606
373.15 K, x1 = 0.3915	729.5	–	0.575
373.15 K, x1 = 0.4988	738	–	0.547
373.15 K, x1 = 0.5961	746.5	–	0.523
373.15 K, x1 = 0.6892	755.6	–	0.5
373.15 K, x1 = 0.7751	764.9	–	0.48
373.15 K, x1 = 0.8553	774.3	–	0.461
373.15 K, x1 = 0.9299	784.7	–	0.444
373.15 K, x1 = 1	795	–	0.43

Conditions	surface tension liquid-gas [mN/m]
x1 = 0.1414	26.5
x1 = 0.2704	26.7
x1 = 0.3915	27
x1 = 0.4988	27
x1 = 0.5961	27.3
x1 = 0.6892	27.3
x1 = 0.7751	27.8
x1 = 0.8553	28
x1 = 0.9299	28.3
